# From the COVID Moonshot data (paper PMC11187573), “Identification of SARS-CoV-2 Mpro inhibitors through deep reinforcement learning for de novo drug design and computational chemistry approaches” (RSC Medicinal Chemistry, 2024)
# Experiments:
# [1] = molecular target: SARS-CoV-2 Main Protease (SARS-CoV-2) (UniProt P0DTD1)
# [2] = molecular target: SARS-CoV-2 Main Protease (SARS-CoV-2) (UniProt P0DTD1); remark: listed apart in the source
Compound,inhibition ([1]; 20.0 µM),inhibition ([1]; 50.0 µM),inhibition ([2]; 20.0 µM),inhibition ([2]; 50.0 µM),relative solubility at 20 uM,relative solubility at 100 uM,IC50 [2]
N#Cc1ccc(Nc2ccc(NC(=O)Nc3cccnc3)cc2)nc1,-1.31%,-3.7%,0%,0%,1,0.91,–
CC(NC(=O)CCl)c1cc(Cl)cc(-c2ccc(S(N)(=O)=O)cc2)c1 (stereo not given),98.4%,94.6%,–,79%,0.99,0.99,0.526 µM
Cc1ccncc1NC(=O)Nc1cccc(C#N)c1,19.4%,44.3%,23.8%,55.7%,1,0.97,49.3 µM
Cc1ccncc1NC(=O)Cn1ccc2ccc(Cl)cc21,30.6%,27%,–,77.4%,0.99,0.98,20 µM
CC1(C)Cc2cccc(OCCNC(=O)c3cc(=O)[nH]c4ccc(F)cc34)c2O1,13.9%,23.7%,–,42%,0.98,0.84,–
C=CC(=O)N(c1ccc(C(C)OC)cc1)C(C(=O)Nc1ccc(Cl)cc1)c1cccnc1 (stereo not given),12.3%,26.1%,0%,–,0.84,0.76,–
CCOC(=O)[C@H]1O[C@@H]1C(=O)N[C@@H](CC(C)C)C(=O)NCCC(C)C (stereo in doubt),-1.54%,-5.21%,–,0%,1,1,–
O=C(c1cc(=O)[nH]c2ccc(Cl)cc12)N1CCN(S(=O)(=O)c2ccccc2)CC1,10.6%,23.9%,–,22.8%,0.94,0.93,–
O=C(NC(Cc1ccccc1)C(=O)NCc1ccno1)OCc1ccccc1 (stereo not given),–,50.6%,0%,0%,0.98,0.85,–
O=C(Cc1ccc2[nH]c(=O)[nH]c2c1)NC1(CNC(=O)c2cnc[nH]2)CC1,6.85%,3.02%,–,76.6%,1,1,27.3 µM
C#CCOc1ccc(N(C(=O)C=C)C(C(=O)NC(C)(C)C)c2cccnc2)cc1 (stereo not given),-13.4%,-14.8%,0%,–,1,1,–
C=CC(=O)N(c1ccc(C(C)(C)C)cc1)C(C(=O)NCCSC)c1cccnc1 (stereo not given),38.5%,68.9%,56%,63.9%,1,0.99,65.4 µM
O=C(c1cc(=O)[nH]c2ccccc12)N1CCN(S(=O)(=O)c2ccccc2)CC1,16.1%,40.7%,–,3.07%,0.98,0.97,–
CCCC(C(=O)Nc1cnccc1C)c1cccc(Cl)c1 (stereo not given),77.9%,90.6%,–,78.3%,1,0.99,5.48 µM
CS(=O)(=O)NCCCN1CCCc2ccc(S(N)(=O)=O)cc21,–,-23.8%,0%,0%,1,1,–
CNS(=O)(=O)Cc1ccc2[nH]cc(CCN(C)C)c2c1,4.66%,2.38%,0%,–,1,1,–
Cc1cccc(NC(=O)C(C#N)C(=O)CC(C)C)c1 (stereo not given),–,-0.258%,0%,0%,1,1,–
COc1cccc(NC(=O)Nc2cccc(C#N)c2)c1,5.11%,9.79%,0%,2.48%,0.96,0.94,–

Compound,inhibition ([1]; 20.0 µM),inhibition ([1]; 50.0 µM),inhibition ([2]; 20.0 µM),inhibition ([2]; 50.0 µM),relative solubility at 20 uM,relative solubility at 100 uM,IC50 [2]
O=C(NCc1cncs1)Nc1cccc(N2CCOCC2)c1,5.65%,13.6%,0.672%,23.8%,1,1.01,–
Cc1ccncc1NC(=O)C12CC(CO1)C2,-0.804%,12.2%,–,0%,1,1,–
O=C(CCl)N1CCN(S(=O)(=O)c2c(F)cccc2F)CC1,98.7%,104%,98.6%,99.2%,0.96,0.88,2.62 µM
O=C(Nc1cnccc1CO)[C@@H]1COc2ccc(Cl)cc21 (stereo in doubt),46.1%,73.1%,–,58.6%,1.01,1,18.4 µM
Cc1ccncc1NC(=O)C(C)(C)c1cccc(Cl)c1,49.3%,68%,–,66.9%,1,1,24.5 µM
Cc1ccncc1NC(=O)Cc1ccc(S(N)(=O)=O)cc1,4.76%,10.9%,6.42%,-0.94%,1,1,–
Cc1cccc(CC(=O)Nc2cccnc2C#N)c1,8.4%,-5.94%,0%,–,1,1,–
C=CC(=O)N(c1ccc2ncsc2c1)C(C(=O)Nc1c(C)cccc1CC)c1cccnc1 (stereo not given),7.67%,10.7%,0%,–,0.97,0.97,–
CC(C)(Cn1c(C2CCC(=O)N2)nnc1N1CCCC(C(N)=O)C1)c1ccccc1F (stereo not given),-2.8%,6.51%,–,29.4%,1,0.99,–
C=CC(=O)N1CCCC(c2nc3ccccc3s2)C1 (stereo not given),–,14.5%,0%,0%,0.99,0.99,–
C=CC(=O)N(c1cc(C(C)(C)C)on1)C(C(=O)NCCc1cccc(F)c1)c1cccnc1 (stereo not given),16.7%,31.3%,–,100%,0.98,0.97,10.9 µM
O=C(NCc1ccno1)c1ccccc1Oc1ccc(Cl)cc1Cl,-13%,-12.4%,0%,0%,1,0.96,–
C=CC(=O)N(c1cc(C(C)(C)C)n[nH]1)C(C(=O)Nc1c(C)cccc1CC)c1cccnc1 (stereo not given),4.05%,4.71%,0%,–,0.92,0.78,–
Cc1cnc(CC(=O)Nc2cccnc2)o1,–,-9.91%,0%,0%,0.99,1,–
C=CC(=O)N(c1ccc(C(C)(C)C)cc1)C(C(=O)NC1CCCC1)c1cccnc1 (stereo not given),-10.5%,-12.8%,0%,1.68%,1.01,1,–
O=C(Cc1cccnc1Cl)Nc1cccc(OCCc2ccccc2)c1,1.54%,6.9%,0%,5.03%,0.81,0.27,–
C=CC(=O)N(c1ccc(C(C)C)nc1)C(C(=O)Nc1ccc(OC)cc1C)c1cccnc1 (stereo not given),6.56%,10.4%,0%,–,0.98,0.93,–
C#Cc1cccc(N(C(=O)C=C)C(C(=O)NC(C)(C)C)c2cccnc2)c1 (stereo not given),-3.84%,3.7%,0%,–,1,1.01,–
